Values quoted from earlier work in article PMC8258280 (Virologica Sinica, 2021).

System: SARS-CoV 3CL^pro
Settings: read-out: IC50 against SARS-CoV 3CL^pro

For `O=c1cc(-c2ccc(O)c(-c3c(O)cc(O)c4c(=O)cc(-c5ccc(O)cc5)oc34)c2)oc2cc(O)cc(O)c12` [amentoflavone], the IC50 is given as 8.3 µM.
